{
  "source": "patent US6500624B1",
  "about": "“Kainate-binding, human CNS receptors of the EAA3 family” (NPS Allelix Corp., priority 1992, dated 2002)",
  "target": "T1, human EAA3a receptor (Homo sapiens, UniProt P39086)",
  "T1 construct": "To provide the entire coding region of the receptor; expressed in transfected cells; host or cells: COS-1 (monkey, ATCC CRL 1650), transient transfection with pcDNAIA/humEAA3a; membrane preparation",
  "T1 sequence (P39086 31-905 isoform P39086-2 limits assumed)": "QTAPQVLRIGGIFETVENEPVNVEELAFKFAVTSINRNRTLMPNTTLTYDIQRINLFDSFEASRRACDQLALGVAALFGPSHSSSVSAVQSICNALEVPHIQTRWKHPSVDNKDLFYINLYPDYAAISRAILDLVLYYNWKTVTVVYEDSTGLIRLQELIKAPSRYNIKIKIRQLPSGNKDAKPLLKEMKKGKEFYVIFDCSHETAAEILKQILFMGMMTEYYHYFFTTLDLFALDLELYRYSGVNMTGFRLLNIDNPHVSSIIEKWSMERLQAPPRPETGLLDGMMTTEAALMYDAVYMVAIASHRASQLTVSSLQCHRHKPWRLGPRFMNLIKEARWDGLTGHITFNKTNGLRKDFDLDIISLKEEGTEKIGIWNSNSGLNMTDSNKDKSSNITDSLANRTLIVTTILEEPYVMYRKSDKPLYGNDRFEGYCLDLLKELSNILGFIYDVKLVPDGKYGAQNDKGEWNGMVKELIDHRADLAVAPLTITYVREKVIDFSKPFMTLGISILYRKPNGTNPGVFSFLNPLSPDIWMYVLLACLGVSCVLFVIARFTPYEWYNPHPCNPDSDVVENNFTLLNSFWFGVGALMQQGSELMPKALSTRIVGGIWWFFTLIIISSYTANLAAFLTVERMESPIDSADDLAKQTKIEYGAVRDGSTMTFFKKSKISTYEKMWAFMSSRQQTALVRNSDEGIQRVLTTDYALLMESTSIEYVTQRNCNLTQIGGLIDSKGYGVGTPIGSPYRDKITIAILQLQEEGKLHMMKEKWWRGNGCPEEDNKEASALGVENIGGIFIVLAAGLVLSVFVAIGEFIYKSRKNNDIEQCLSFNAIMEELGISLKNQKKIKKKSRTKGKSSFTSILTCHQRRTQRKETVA",
  "assay": "NMDA binding to membranes of EAA3a-producing COS cells",
  "settings": "EAA3a-producing COS cell membranes",
  "data": [
    {"smiles": "CN[C@H](CC(=O)O)C(=O)O", "note": "[NMDA, N-methyl-D-aspartate]", "values": [
      {"measurement": "binding of NMDA", "result": "little or no demonstrable binding"}
    ]}
  ]
}
